The results in this text go back to patent US20060116325A1, “Methods and compositions for inhibiting hiv-coreceptor interactions” (priority 2001, published 2006).

Assay [1] addresses T1, CCR5 (Homo sapiens, UniProt P51681). Nature of the assay: Binding of anti-CCR5 antibody 2D7 to HEK293/CCR5 cells (flow cytometry). Also noted: expressed in transfected cells; host or cells: HEK-293. The settings on record: 0.1 mM peptide, 45 min 22° C. The protocol:
CEMx174 cells were pelleted and resuspended at 10^6 cells/ml in PBS containing 1% BSA and 0.1% sodium azide (FACS buffer). Cells were then preincubated with designated concentrations of peptides or SDF-1-α (1 μg/ml) at 22° C. for 60 min. FITC-labeled anti-human CXCR4 antibody (clone 12G5, BD PharMingen, San Diego, Calif.) was added to the cells per the manufactures instructions and further incubated at 22° C. for 40 minutes. Cells were extensively washed with FACS buffer and analyzed using a FACS Calibur flowcytometer (Becton Dickinson). HEK/CCR5 cells were suspended in Dulbecco's PBS containing 1% FCS and 0.05% NaN3 (10^4 cells in 100 μl) and incubated with or without 5 μg of MIP-1β (PeproTech, Rocky Hill, N.J.), 0.1 mM peptide 15D or 15K for 45 min at 22° C. Cells were then treated with FITC-conjugated anti-human CCR5 antibody (2D7; BD PharMingen, San Diego, Calif.), and incubated for 30 min at 22° C. Cells were washed twice, and analyzed using a FACScan flow cytometer (Becton Dickinson Immunocytometry Systems, San Jose, Calif.).
The effect of the exemplary peptides 15K and 15D on the binding of 2D7 antibodies to CCR5 was assayed to further evaluate the mechanism of anti-coreceptor activity of the peptides. […]
The effects of peptides 15D and 15K on 2D7 antibody binding to HEK293/CCR5 cells were analyzed by flow cytometry.
On the technique in general: Flow cytometry measures light scatter and fluorescence of single cells or particles in a stream.

Assay [2] addresses T1, CCR5. Nature of the assay: Chemotaxis of HEK-CCR5 cells to RANTES (microchemotaxis chamber). The settings on record: for inhibition of RANTES-directed chemotactic response / induction of chemotaxis by peptide alone: HEK-CCR5 cells; for inhibition of RANTES-directed chemotactic response: RANTES 100 ng/ml, 3 hr; for induction of chemotaxis by peptide alone: tested at any concentration. It is filed as cell-based. Also noted: expressed in transfected cells; host or cells: HEK-293. The protocol: Migration of HEK-CCR5 cells to RANTES alone, or the combination of RANTES and designated concentrations of either 15K or 15D peptides, were determined in micro-chemotaxis chambers. […] The results are representative of three independent experiments. *p<0.05.
Chemotaxis assays for HEK-293 cells transfected with CCRS was performed as previously described (Howard et al., J. Biol. Chem. 274:16228-16234, 1999, incorporated herein by reference). Briefly, the chemokine RANTES, diluted in binding medium to 100 ng/ml, was placed in the lower wells of a microchemotaxis chamber. Polycarbonate membrane pretreated with rat tail collagen type 1 was placed over the chemokine solution. The cells (1×10^6/ml) were suspended in binding medium along with the exemplary peptides 15D or 15K at designated concentrations and placed in the upper wells of the chamber. After incubation for 3 hr the membrane was removed, stained using a Diff-Quik kit (Trends Scientific, Kalamazoo, Mich.) and counted. The results are expressed as the “chemotaxis index”, which represents the ratio of the number of cells in high powered field in test versus control samples.
To achieve this goal, the capacity of these peptides to inhibit the chemotactic response of HEK-CCR5 cells to a cognate ligand of CCR5 receptors, the chemokine RANTES, was assayed.

The target in assay [3] is CXCR4 (Homo sapiens, UniProt P61073). Nature of the assay: Competition with radiolabeled SDF-1α binding to HEK-CXCR4 cells. The settings on record: high concentrations (e.g., 100 μM) of peptide required, FIG. 1. Further details: host or cells: CEMx174 (174xCEM). The protocol:
Binding assays were performed with HEK-CCR5 or HEK CXCR4 in triplicate by adding unlabeled competitor (anti-coreceptor binding peptide or control chemokine) and radiolabeled chemokine, 0.2 ng/ml (^125I-MIP-1β or SDF-1α, specific activity 2000 Ci/mmol, NEN Life Science Products) to a cell suspension (4×10^5 cells in 200 μl) in RPMI 1640 supplemented with 1% bovine serum albumin and 25 mM HEPES pH 8.0 (binding medium). Cells were then incubated at 22° C. for 40 min with continuous rotation. After incubation cells were transferred to the tubes containing 800 μl of 10% sucrose in PBS and harvested by centrifugation. The supernatant was aspirated and the cell-associated radioactivity was measured using a 1272 Wallac gamma counter. […] After incubation cells were transferred to the tubes containing 800 μl of 10% sucrose in PBS and harvested by centrifugation, the supematant was aspirated and the cell-associated radioactivity was measured using a 1272 Wallac gamma counter. The data were analyzed by nonlinear regression using the computer program GraphPad Prizm 3.0.
Considering that the 15K and 15D peptides were designed in part based on their structural similarity to corresponding chemokine fragments, the binding activity of these peptides for CCR5 and/or CXCR4 receptors, and corresponding anti-coreceptor binding activity against chemokines, was assessed.

T1 sequence (P51681 whole entry): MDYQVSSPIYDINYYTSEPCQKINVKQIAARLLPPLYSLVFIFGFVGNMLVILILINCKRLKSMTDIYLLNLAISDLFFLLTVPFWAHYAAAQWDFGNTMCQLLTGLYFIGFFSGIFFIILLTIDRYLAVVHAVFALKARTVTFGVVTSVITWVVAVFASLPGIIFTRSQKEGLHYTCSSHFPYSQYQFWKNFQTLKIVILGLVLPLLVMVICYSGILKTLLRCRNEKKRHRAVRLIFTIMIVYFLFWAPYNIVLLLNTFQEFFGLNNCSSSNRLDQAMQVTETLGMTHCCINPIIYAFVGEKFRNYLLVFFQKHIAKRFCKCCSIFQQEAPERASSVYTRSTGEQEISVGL
Sequence of CXCR4 (P61073 whole entry): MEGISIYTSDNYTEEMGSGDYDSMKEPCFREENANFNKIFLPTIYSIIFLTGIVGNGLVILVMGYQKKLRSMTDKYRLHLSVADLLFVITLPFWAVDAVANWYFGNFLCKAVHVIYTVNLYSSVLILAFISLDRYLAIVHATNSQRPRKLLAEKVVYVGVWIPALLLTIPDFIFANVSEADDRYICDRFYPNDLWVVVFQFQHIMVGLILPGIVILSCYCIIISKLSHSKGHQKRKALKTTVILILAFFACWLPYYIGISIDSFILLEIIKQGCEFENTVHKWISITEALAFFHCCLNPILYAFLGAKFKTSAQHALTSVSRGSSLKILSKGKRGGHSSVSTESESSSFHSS

As to “I R K A H C N I S R A D W N D [Peptide 15D]”, the “effect on 2D7 anti-CCR5 antibody binding” value in assay [1] is “No significant effect”. Moreover, the “inhibitory activity on chemotaxis, one peptide compared with the other” value in assay [2] (15D versus 15K, FIG. 2) is “consistently exhibited greater inhibitory activity”. Besides, the “inhibition of RANTES-directed chemotactic response” value in assay [2] (FIG. 2) is “completely blocked”. In assay [2], the “induction of chemotaxis by peptide alone” value was “did not induce detectable chemotaxis”. Also, in assay [3], the “inhibition of radiolabeled SDF-1α binding to cells expressing CXCR4” value was “significantly inhibit chemokine binding”.
Regarding IRKAHCNISRAKWND [Peptide 15K], the “effect on 2D7 anti-CCR5 antibody binding” value in assay [1] is “No significant effect”. Besides, in assay [2] (FIG. 2), the “inhibition of RANTES-directed chemotactic response” value is reported as “completely blocked”. Moreover, the “induction of chemotaxis by peptide alone” value in assay [2] is recorded as “did not induce detectable chemotaxis”. Further, the “inhibition of radiolabeled SDF-1α binding to cells expressing CXCR4” value in assay [3] is on record as “significantly inhibit chemokine binding”.
